Consider 4 compounds from US20100204144A1, “USE OF THE PEPTIDES MAIPPKKNQDK (COW KAPPA CASEIN 106-116) AND/OR YGFQNA (SERORPHIN) AS THERAPEUTIC AGENTS” (priority 2007, published 2010).

Where no end group is shown, it is not given here.

The test system of assay [1] is hepatitis B virus (HBV) ayw strain. Briefly: HBV assay in HepG2-2.2.15 cells (secreted HBV DNA, TaqMan PCR). The assay is classed as cell-based. The conditions noted are these: 10 micrograms per ml, six days, HBV DNA in supernatant. An excerpt:
HepG2-2.2.15 is a stable cell line containing the hepatitis B virus (HBV) ayw strain genome (ATCC Cat. No. CRL-11997). Antiviral compounds blocking any late step of viral replication such as transcription, translation, pregenome encapsidation, reverse transcription, particle assembly and release can be identified and characterized using this cell line. In this assay, an active compound will reduce the production of secreted HBV from cells, measured by utilizing real time quantitative PCR (TaqMan) assay to directly and accurately measure HBV DNA copies.
HepG2-2.2.15 cells were plated in 96-well microtiter plates. After 16-24 hours the confluent monolayer of HepG2-2.2.15 cells was washed and the medium was replaced with complete medium containing test peptides—10 micrograms per ml—in duplicate. […] Six days following the initial administration of the peptides, the cell culture supernatants was collected, treated with pronase and DNAse and then used in a real-time quantitative TaqMan PCR assay. The PCR-amplified HBV DNA was detected in real-time by monitoring increases in fluorescence signals that result from the exonucleolytic degradation of a quenched fluorescence probe molecule that hybridizes to the amplified HBV DNA. […] Antiviral activity was calculated from the reduction in HBV DNA levels (% virus control). […]
Background: Real-time PCR tracks product formation cycle by cycle.

A further assay relates to HUVEC. Briefly: Endothelial tube formation assay. The class given is cell-based, human. The conditions noted are these: 10 micrograms per ml, 20 hours. An excerpt: Positive control was vehicle only.
Assay [2] concerns IL-2, IL-4, IL-5, IFN-γ and TNF-α protein levels of spleen cells. Briefly: Th1/Th2 cytokine profiling assay (Ovalbumin-restimulated spleen cells, CBA kit). The assay is classed as cell-based, Balb/c mice. Particulars: 10 micrograms per ml; Ovalbumin restimulation, 72 hours.
Excerpt: The Balb/c mice (originated in 1923, it is a popular strain and is used in many different research disciplines. Also classified as an inbred from the production of 20 or more successive brother-sister matings, the Balb/c mouse is albino and small in size) were immunized on Days 1, 15, and 29 with Ovalbumin (Ovalbumin is the main protein found in egg white, commonly used to stimulate an immunological reaction in test animals) in PBS (5 micrograms/injection). On day 50, spleens of the mice were harvested (3 weeks after last boost with Ovalbumin). […] Thereafter, additional Ovalbumin was added to the cells at 10 micrograms/ml for in vitro restimulation of the cells. 72 hours later, cell supernatants were harvested and assayed using the Becton Dickinson Mouse Th1/Th2 Cytokine CBA Kit. This kit can be used to measure Interleukin-2 (IL-2), Interleukin-4 (IL-4), Interleukin-5 (IL-5), Interferon-γ (IFN-γ), and Tumor Necrosis Factor-α (TNF-α) protein levels in a single sample.
In assay [3] the test system is Primary Human endothelial cells (HUVEC). Briefly: Endothelial cell migration assay. The class given is cell-based. Particulars: 10 micrograms per ml, 22 hours. As for the experimental part: Thereafter, designated concentration of testing peptides -10 micrograms per ml—was added in duplicate wells.
The subject of assay [4] is Human Peripheral Blood Mononuclear Cells (PBMC), B cell proliferation. Briefly: B cell proliferation assay (SAC plus Interleukin-2, 3H-thymidine). The class given is cell-based. Particulars: 10 micrograms per ml; SAC plus IL-2 stimulated PBMC.
Description: Human Peripheral Blood Mononuclear Cells (PBMC) were obtained from normal human donors. The B cell proliferation was induced by stimulation of the cells with the B cell mitogen Staphylococcus aureus Cowans I (SAC) plus Interleukin-2, either in the absence (positive proliferation control), or in the presence of test peptides—10 micrograms per ml—to examine their effects on the B cell response. 10^5/well PBMC were plated in 96-well microtiter plates and assayed in duplicate with the peptides. […] At the end of incubation time, the plates were harvested and the cells counted by liquid scintillation for the incorporation of ^3H-thymidine as a measure of B cell proliferation.
The subject of assay [5] is cyclic AMP generation in human peripheral blood mononuclear cells (PBMC). Briefly: cAMP induction assay (ELISA). The class given is cell-based. The conditions noted are these: 10 min at 37° C. The protocol:
The cAMP kit was used as an immunoassay for the quantitative determination of cyclic AMP generation in human peripheral blood mononuclear cells (PBMC). PBMC were placed in 96-well microtitier plates (50 microliters of cells at 4×10^6/ml) and 50 microliters of medium alone (background control), forskolin (cAMP positive control; 50 micrograms per ml), or test peptides were added. Plates were mixed and incubated for 10 min at 37° C. and the cells were lysed by the addition of 50 microliters of 3% perchloric acid. NaOH was added to neutralize the samples. Plates were centrifuged for 15 min at 2500 rpm and the supernatants removed. The supernatants (diluted 2-fold in assay buffer) were then assayed for the levels of cAMP by ELISA.
(In general: In an ELISA, binding on a coated surface is turned into a signal by an enzyme label.)

Another assay concerns HIV-1IIIB. Briefly: HIV-1 antiviral assay in CEM-SS cells (MTS read-out of virus cell killing).

On to “Met-Ala-Ile-Pro-Pro-Lys-Lys-Asn-Gln-Asp-Lys-OH (MAIPPKKNQDK-OH) [peptide 1]”, for which the “inhibition of HBV replication as compared to the virus control infection” value in assay [1] is 29.4%. Further, the “inhibition of the tube formation of endothelial cells” value with HUVEC came to 23%. Also, in assay [2], the “IFNγ spleen cells; TH1 response (% of control)” value was 63.4 % of control, the “IL-2 spleen cells (% of control)” value is 0.0 % of control, the “IL-4 spleen cells; TH2 response (% of control)” value is recorded as 0.0 % of control and the “IL-5 spleen cells; TH2 response (% of control)” value was 57.1 % of control. Besides, the “TNF-a spleen cells; TH1 response (% of control)” value in assay [2] was 74.9 % of control. For the same compound, in assay [3], the “induction of the migration of human endothelial cells” value is listed as 22%. Moreover, the “inhibition of the proliferation of specifically stimulated human B-cells” value in assay [4] is listed as 21.2%. Further, the “induction of cAMP formation in human peripheral blood cells” value in assay [5] was 5.3%.
For the compound “Tyr-Gly-Phe-Gln-Asn-Ala-OH (YGFQNA-OH) [peptide 2]”, in assay [1], the “inhibition of HBV replication as compared to the virus control infection” value is listed as 35.7%. Also, the “inhibition of the tube formation of endothelial cells” value in the assay on HUVEC is on record as 21%. Besides, in assay [2], the “IFNγ spleen cells; TH1 response (% of control)” value is on record as 48.2 % of control, the “IL-2 spleen cells (% of control)” value is 0.0 % of control, the “IL-4 spleen cells; TH2 response (% of control)” value was 0.0 % of control and the “IL-5 spleen cells; TH2 response (% of control)” value is given as 42.2 % of control. Moreover, in assay [2], the “TNF-a spleen cells; TH1 response (% of control)” value is given as 81.4 % of control. For the same compound, the “induction of the migration of human endothelial cells” value in assay [3] stood at 26%. In assay [4], the “inhibition of the proliferation of specifically stimulated human B-cells” value is 7.1%. The “induction of cAMP formation in human peripheral blood cells” value in assay [5] worked out at 1.8%.
As to `Cc1cn([C@H]2C[C@H](N=[N+]=[N-])[C@@H](CO)O2)c(=O)[nH]c1=O` [AZT], the “antiviral activity of positive control compounds (HIV-1)” value with HIV-1IIIB is reported as “expected levels of antiviral activity”.
Same read-out and setting: as for `CC(C)(C)NC(=O)[C@@H]1CN(Cc2cccnc2)CCN1C[C@@H](O)C[C@@H](Cc1ccccc1)C(=O)N[C@H]1c2ccccc2C[C@H]1O` [indinavir], the entry is “expected levels of antiviral activity”.
